A word on the ED50: it is the dose at which the effect has come halfway, by size or by number of responders.

Test [1] deals with naloxone-induced flush (tail skin temperature). The test is described as follows: Morphine-dependent rat model of hot flush (MD model). To be noted: for ED50: Rattus norvegicus, read-out: ED50 value, abatement of naloxone-induced flush; for effect on naloxone-induced flush at maximal flush: 1 hour prior to naloxone, 15 minutes post-naloxone.
Description: (§1) Dosinq: All doses were prepared based on mg/kg.
(§2) Animals: Ovariectomized Sprague-Dawley rats (180-220 g) were obtained from a commercial vendor (Taconic, Germantown, N.Y.) and individually housed under 12 hours light/dark cycle in a room maintained at 25° C. Animals were provided with standard rat chow and water ad libitum.
Morphine-dependent model: Ovariectomized rats were injected once daily for 8-9 days with vehicle to minimize stress responses and then administered compound(s) on test day. On day 4 of dosing, morphine dependence was induced by sc implantation of two slow-release morphine pellets (75 mg/pellet) in the dorsal scapular region. […] Four to six days after implantation, morphine withdrawal was induced with an opioid antagonist (naloxone) that causes a transient increase in TST. […] Rats were mildly sedated with ketamine and a thermistor connected to a MacLab data acquisition system was taped to the base of the tail. Tail skin temperature was then monitored continuously for 35 minutes to establish a baseline temperature. Naloxone was subsequently administered and TST was measured for an additional 35 to 60 minutes (total recording time 70 to 95 minutes).
Statistical analysis: To analyze changes in TST induced by naloxone in morphine-dependent rats, all data were analyzed using a two factor repeated measure ANOVA for “treatment” and “time.” The model was fit to test whether there were significant differences in the responses between treatment groups. Naloxone administration is designated as time zero and data is then analyzed at 5 minute intervals. The first three readings were averaged and used as baseline TST scores. All data were analyzed as ΔTST (TST for each time point—baseline). Multiple comparisons (LSD p-values) among the treatment groups at each time point were used for the analysis. Efficacy of hot flush abatement was determined by evaluating statistical differences at the peak response time of 15 minutes post-naloxone, when the maximal change in TST is observed. A customized SAS-excel (SAS Institute, Cary, N.C.) application was used applying a four parameter logistic model to determine ED50 values. A logistic dose transformation was performed on ΔTST. Maximum flush (ΔTST at 15 minutes post-naloxone) was used in the analysis and the minimum was locked at zero.
Test [2] concerns tail skin temperature during active (dark) phase. The test is described as follows: OVX-induced thermoregulatory dysfunction telemetry model.
Description: as §1, §2
A temperature and physical activity transmitter (PhysioTel TA10TA-F40, Data Sciences International) was implanted subcutaneously in the dorsal scapular region and the tip of the temperature probe was tunneled subcutaneously 2.5 cm beyond the base of the tail. After a 7-day recovery period, TST readings were continuously recorded for the remainder of the study. Tail skin temperature readings were collected from each animal every 5 minutes with values obtained over a 10 second sampling period. The day before test day, an average baseline TST value was calculated for each animal by averaging temperature readings recorded during the 12 hours active (dark) phase. In these studies, animals were dosed approximately 1 hour prior to the onset of dark cycle.
Evaluation of a compound's ability to restore normal lowering of TST in the telemetry model was analyzed using hourly TST values calculated for each animal by averaging the 12 temperature readings obtained every 5 minutes over that recording time. To analyze ΔTST in the telemetry model, a two factors repeated measure ANOVA was performed. The model used for analysis was ΔTST=GRP (group)+HR (hours)+GRP*HR+BASELINE. Thus, the reported least squares means are the expected mean values as if both groups had the same baseline value. Post-hoc tests of hourly GRP*HR samples are t-tests of the difference between groups for each hour. To be conservative, a result was not considered significant unless the p-value was <0.025. All analyses were performed using SAS PROC MIXED (SAS, Carey, N.C.).

`CN1CCN(CC(c2cccc(Cl)c2)C2(O)CCCCC2)CC1` (racemic) [1-[1-(3-chlorophenyl)-2-(4-methyl-1-piperazinyl)ethyl]cyclohexanol]: in test [1] (dose response, sc), the “changes in TST over time after naloxone” value was “dose-dependently abate the naloxone-induced flush”. In the case of `CN(C)CC(c1ccc(O)cc1)C1(O)CCCCC1` (centres unmarked) [DVS-233, O-desmethyl-venlafaxine], the median effective dose (ED50) in test [1] (sc) was determined as 30 mg/kg. Further, the “changes in TST over time” value in test [2] (60 mg/kg sc) was “significantly and transiently decreases TST during the active phase”. In the case of `CN(C)CC(c1cccc(Cl)c1)C1(O)CCCCC1` (centres unmarked) [WY-781], the “effect on naloxone-induced flush at maximal flush” value (from here on “effect … at maximal flush”) in test [1] (30 mg/kg intraperitoneally) was “abated the naloxone-induced flush”.

On to `CN(C)CC(c1cccc(C(F)(F)F)c1)C1(O)CCCCC1` (centres unmarked) [WY-867], for which the “effect … at maximal flush” value in test [1] (30 mg/kg intraperitoneally) is “abated the naloxone-induced flush”. For `CCC1(c2cnc[nH]2)Cc2ccccc2C1` [atipamezole], the “changes in TST after naloxone vs vehicle” value in test [1] (atipamezole 0.3 mg/kg sc alone, 55 minutes prior to naloxone) is on record as “not significantly different from vehicle treated rats”. For `CNCCCN1c2ccccc2CCc2ccccc21` [desipramine], the “abatement of naloxone-induced flush” value in test [1] (1 mg/kg sc, 40 minutes prior to naloxone, alone) is “approximately 50%”. Moreover, the “abatement of hot flush” value in test [1] (3 mg/kg desipramine co-administered with 10 mg/kg dose of SRI) is reported as 100%. In addition, the ED50 in test [1] (sc) is 1 mg/kg. Further, the “effect … at maximal flush” value in test [1] (dose response, sc) is given as “dose-dependently abates the naloxone-induced flush”. Besides, the “reduction of TST compared to vehicle treated rats in naloxone-induced hot flush” value in test [1] (low dose) worked out at 50%. The “changes in TST over time” value in test [2] (10 mg/kg sc) is given as “significantly decreases TST over the entire length of the active phase”. In the case of `CNCCC(Oc1ccc(C(F)(F)F)cc1)c1ccccc1` (centres unmarked) [fluoxetine], in test [1] (fluoxetine 10 mg/kg sc alone), the “effect on naloxone-induced flush” value was “did not abate the naloxone-induced flush”. With `CCOc1ccccc1OC(c1ccccc1)C1CNCCO1` (centres unmarked) [reboxetine], in test [1] (dose response, sc), the “changes in TST over time after naloxone” value was “dose-dependently abate the naloxone-induced flush” and the “effect … at maximal flush” value is recorded as “dose-dependently abates the naloxone-induced flush”.

As for `COc1ccc(C(CN(C)C)C2(O)CCCCC2)cc1` (centres unmarked) [venlafaxine], the “effect on elevated naloxone-dependent hot flush induced by atipamezole” value in test [1] (rat, in vivo) was “able to alleviate”. The “changes in TST over time” value in test [2] (15 mg/kg sc) was “significantly and transiently decreased TST during the active phase”.
